Laboratory results reported in patent US20130196050A1, “SALTY TASTE ENHANCER” (AJINOMOTO CO., INC., priority 2010, published 2013).

Molecular target: T1, Human ENaC δ, β and γ subunit (Homo sapiens, UniProt P51168+P51170+P51172)
T1 construct: expressed in transfected cells; host or cells: Xenopus laevis (African clawed frog) oocytes injected with cRNA
T1 sequence (P51172 1-638 isoform P51172-1): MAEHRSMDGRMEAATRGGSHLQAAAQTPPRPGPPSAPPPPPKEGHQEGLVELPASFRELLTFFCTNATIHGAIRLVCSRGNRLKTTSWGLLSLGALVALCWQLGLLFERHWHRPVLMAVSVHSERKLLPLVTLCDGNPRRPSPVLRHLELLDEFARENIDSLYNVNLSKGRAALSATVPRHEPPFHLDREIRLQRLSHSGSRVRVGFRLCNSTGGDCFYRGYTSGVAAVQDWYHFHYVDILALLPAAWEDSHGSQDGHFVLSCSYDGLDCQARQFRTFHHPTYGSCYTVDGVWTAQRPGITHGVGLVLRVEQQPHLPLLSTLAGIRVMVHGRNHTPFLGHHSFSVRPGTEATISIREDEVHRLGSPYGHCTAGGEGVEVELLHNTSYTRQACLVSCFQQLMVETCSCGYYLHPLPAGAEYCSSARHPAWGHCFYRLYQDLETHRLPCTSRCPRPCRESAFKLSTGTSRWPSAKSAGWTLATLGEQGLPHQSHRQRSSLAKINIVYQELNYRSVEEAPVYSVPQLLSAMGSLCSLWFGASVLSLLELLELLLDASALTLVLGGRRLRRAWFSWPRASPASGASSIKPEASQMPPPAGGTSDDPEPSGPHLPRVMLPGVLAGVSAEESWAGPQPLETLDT
T1 sequence (P51168 1-640): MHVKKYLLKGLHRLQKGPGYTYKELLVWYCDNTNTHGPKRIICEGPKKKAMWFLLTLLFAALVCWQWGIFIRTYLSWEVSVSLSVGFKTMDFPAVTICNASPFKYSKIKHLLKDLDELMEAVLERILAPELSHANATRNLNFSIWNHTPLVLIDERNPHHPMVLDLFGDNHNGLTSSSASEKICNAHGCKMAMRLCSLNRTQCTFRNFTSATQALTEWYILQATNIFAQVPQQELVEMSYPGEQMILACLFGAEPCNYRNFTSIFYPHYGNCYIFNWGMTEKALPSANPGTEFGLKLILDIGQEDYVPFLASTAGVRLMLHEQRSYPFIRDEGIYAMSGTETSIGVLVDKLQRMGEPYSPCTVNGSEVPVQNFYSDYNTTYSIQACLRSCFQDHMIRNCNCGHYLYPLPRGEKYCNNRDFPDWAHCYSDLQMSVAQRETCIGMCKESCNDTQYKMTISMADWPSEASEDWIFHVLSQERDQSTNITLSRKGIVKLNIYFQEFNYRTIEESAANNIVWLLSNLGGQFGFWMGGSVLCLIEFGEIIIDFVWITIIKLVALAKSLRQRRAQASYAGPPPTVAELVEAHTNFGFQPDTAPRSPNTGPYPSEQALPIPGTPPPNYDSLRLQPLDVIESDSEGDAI
T1 sequence (P51170 1-649): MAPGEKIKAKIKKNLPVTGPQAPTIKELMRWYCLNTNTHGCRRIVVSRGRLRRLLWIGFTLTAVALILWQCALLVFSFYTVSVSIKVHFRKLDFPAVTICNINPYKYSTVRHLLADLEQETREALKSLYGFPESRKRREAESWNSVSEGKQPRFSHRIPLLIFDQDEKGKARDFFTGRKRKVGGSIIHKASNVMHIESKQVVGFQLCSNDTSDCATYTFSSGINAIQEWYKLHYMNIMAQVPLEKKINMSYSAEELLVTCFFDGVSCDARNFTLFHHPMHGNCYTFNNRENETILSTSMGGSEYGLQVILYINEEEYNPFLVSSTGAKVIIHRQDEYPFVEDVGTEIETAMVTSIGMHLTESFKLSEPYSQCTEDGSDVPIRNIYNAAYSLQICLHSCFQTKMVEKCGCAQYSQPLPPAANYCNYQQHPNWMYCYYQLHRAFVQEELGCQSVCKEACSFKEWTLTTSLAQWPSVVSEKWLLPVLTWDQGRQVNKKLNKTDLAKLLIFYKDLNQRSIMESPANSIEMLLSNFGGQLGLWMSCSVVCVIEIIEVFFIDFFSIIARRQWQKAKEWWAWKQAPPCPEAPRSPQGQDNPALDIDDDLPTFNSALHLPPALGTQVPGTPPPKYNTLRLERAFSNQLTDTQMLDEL
Assay: Measurement of ENaC activation potency (two electrode voltage clamp current in ENaC-expressing oocyte)
Type: cell-based
Conditions: lowest concentration increasing the current value by not less than 10% vs before addition
Protocol: ENaC activation current value, namely, the inward current in ENaC-expressing oocyte was measured as follows.
According to the method described in Motonao Nakamura, Takao Shimizu: Experiment of African clawed frog oocyte, Experimental Medicine Vol. 11, No. 3, 224-232 (1993), oocyte was collected from African clawed frog, […], and the current value was measured by a Two Electrode Voltage Clamp technique. In the present invention, ND96 (96 mM NaCl, 2 mM KCl, 1 mM MgCl2, 5 mM Hepes, 1.8 mM CaCl2, pH 7.6) was used instead of MBS buffer in the above-mentioned document. Injector NANOLITER 2000 manufactured by World Precision Instruments was used for microinjection, OpusXpress 6000A manufactured by Molecular Devices was used for current value measurement by a Two Electrode Voltage Clamp technique, and Clampfit 10.2 software manufactured by Molecular Devices was used for data analysis.
Human ENaC δ, β and γ subunit genes shown by SEQ ID NOs: 1, 2 and 3, respectively, in the Sequence Listing were each cloned into a plasmid vector, and used as a template DNA for cRNA synthesis. cRNA was synthesized using MEGAscript kit manufactured by Ambion and according to the method of the manual of the manufacturer.
A mixture of the same amount of ENaC δ subunit cRNA (0.4 to 0.8 μg/μL), and β and γ subunits cRNA (0.4 μg/μL) was injected into the oocyte of African clawed frog at 27.6 nL per oocyte, and the oocyte was cultured for 16 hours to 72 hours. Thereafter, the oocyte was set on a measuring apparatus OpusXpress 6000A, the electrodes were inserted into the oocyte, the voltage was clamped at a level lower by −30 mV than the resting membrane potential by a Two Electrode Voltage Clamp technique, and the current value was measured.
To measure the ENaC activation potency, oocyte was stimulated with each test compound, and the minimum effective dose (hereinafter to be abbreviated as MED) of the compound at the time point when the electric current started to increase was measured. In this case, the minimum effective dose of the stimulation compound that increased the current value by not less than 10%, as compared to the current value before addition of the compound and without stimulation, was taken as MED. A smaller MED means higher ENaC activation potency.
Each test compound was directly dissolved in ND96, or first dissolved in dimethyl sulfoxide (DMSO) to 100 mM, and then prepared by diluting the solution with ND96 to a concentration used for the evaluation. The concentration of the test compound in ND96 was prepared to various concentrations within the range of 0.1 nM to 300 μm.
ND96 as a perfusion fluid was flowed at a rate of 0.5 mL/min through the measuring apparatus OpusXpress 6000A on which ENaC-expressing oocyte was set, the perfusion fluid was temporarily stopped every 3 minutes to add a test compound solution (0.25 mL) dissolved in ND96 at a rate of 0.5 mL/minute. In this way, the test compound was contacted with ENaC-expressing oocyte, and whether ENaC is activated by the compound was examined by measuring the current value. After addition of the test compound, feeding of the perfusion fluid was resumed to wash away the compound to be ready for the next addition of the compound.
The compound was added successively from a low concentration to a high concentration to stimulate ENaC-expressing oocyte. The concentrations actually added was, for example, 1 nM, 3 nM, 10 nM, 30 nM, 100 nM, 300 nM; 1 μM, 3 μM, 10 μm, 30 μm, 100 μm, 300 μm; 1.2 μM, 6 μM, 30 μm, 150 μm of one test compound. The compound was added from low concentrations to high concentrations at 3 minute intervals. The first compound was added from a low concentration to a high concentration, then the second and the third compounds were similarly added successively to the same oocyte, and changes in the current value were measured. The current value was continuously measured from the start to the end of the experiment. […]

Row | MED value (minimum effective dose) | Structure (SMILES)
1 | 10 µM | CC(C)(C)OC(=O)NC(Cc1c[nH]c2ccccc12)C(=O)Nc1c(O)cccc1O (stereo in doubt) [Example 21, tert-butyl (S)-1-(2,6-dihydroxyphenylcarbamoyl)-2-(1H-indol-3-yl)ethylcarbamate]
2 | 0.6 µM | COC(=O)[C@H](Cc1c[nH]c2ccccc12)NC(=O)c1c(O)cccc1O [Example 1, (S)-Methyl 2-(2,6-dihydroxybenzamido)-3-(1H-indol-3-yl)propanoate]
3 | 0.6 µM | COC(=O)[C@@H](Cc1c[nH]c2ccccc12)NC(=O)c1c(O)cccc1O [Example 2]
4 | 0.6 µM | O=C(N[C@@H](Cc1c[nH]c2ccccc12)C(=O)O)c1c(O)cccc1O [Example 3]
5 | 0.6 µM | O=C(N[C@H](Cc1c[nH]c2ccccc12)C(=O)O)c1c(O)cccc1O [Example 4]
6 | 3 µM | O=C(NCCc1c[nH]c2ccc(O)cc12)c1ccccc1O [Example 6]
7 | 3 µM | O=C(O)c1ccccc1C(=O)NCCc1c[nH]c2ccc(O)cc12 [Example 9]
8 | 3 µM | COC(=O)[C@H](Cc1c[nH]c2ccc(O)cc12)NC(=O)c1c(O)cccc1O [Example 10]
9 | 3 µM | COC(=O)[C@H](Cc1cn(C)c2ccccc12)NC(=O)c1c(O)cccc1O [Example 11]
10 | 3 µM | O=C(N[C@@H](Cc1c[nH]c2ccc(O)cc12)C(=O)O)c1c(O)cccc1O [Example 12]
11 | 1 µM | O=C(N[C@H](CO)Cc1c[nH]c2ccccc12)c1c(O)cccc1O [Example 14]
12 | 10 µM | O=C(N[C@@H](Cc1c[nH]c2ccccc12)C(=O)OCc1ccccc1)c1c(O)cccc1O [Example 15]
13 | 3 µM | COC(=O)C(C)(Cc1c[nH]c2ccccc12)NC(=O)c1c(O)cccc1O (stereo not shown) [Example 16]
14 | 1 µM | COC(=O)C(Cc1c[nH]c2cc(F)ccc12)NC(=O)c1c(O)cccc1O (stereo not shown) [Example 17]
15 | 3 µM | CC(Cc1c[nH]c2ccccc12)(NC(=O)c1c(O)cccc1O)C(=O)O (stereo not shown) [Example 18]
16 | 1 µM | O=C(NC(Cc1c[nH]c2cc(F)ccc12)C(=O)O)c1c(O)cccc1O (stereo not shown) [Example 19]
17 | 10 µM | CC(C)(C)OC(=O)N[C@@H](Cc1c[nH]c2ccccc12)C(=O)Nc1c(O)cccc1O [Example 20]

Row | MED value (minimum effective dose) | Structure (SMILES)
18 | 3 µM | N[C@@H](Cc1c[nH]c2ccccc12)C(=O)Nc1c(O)cccc1O [Example 22]
19 | 10 µM | N[C@H](Cc1c[nH]c2ccccc12)C(=O)Nc1c(O)cccc1O [Example 23]
20 | 3 µM | COc1cccc(OC)c1C(=O)NCCc1c[nH]c2ccc(O)cc12 [Example 25]
21 | 6 µM | O=C(NCCc1c[nH]c2ccc(O)cc12)c1c(C(F)(F)F)cccc1C(F)(F)F [Example 26]
22 | 3 µM | O=C(NCCc1c[nH]c2ccc(O)cc12)c1c(Cl)cccc1Cl [Example 27]
23 | 1 to 3 µM | O=C(NCCc1c[nH]c2ccc(O)cc12)c1c(O)cc(O)cc1O [Example 28]
24 | 1 to 3 µM | Cc1cc(O)c(C(=O)NCCc2c[nH]c3ccc(O)cc23)c(O)c1 [Example 29]
25 | 1.2-6^ μM | O=C(NCCc1c[nH]c2ccc(O)cc12)c1cccc(O)c1O [Example 32]
26 | 1 µM | O=C(NC(Cc1c[nH]c2ccccc12)C(=O)O)c1cccc(O)c1O (stereo not shown) [Example 39]
27 | 1 µM | O=C(N[C@H](Cc1c[nH]c2ccccc12)C(=O)O)c1cc(O)ccc1O [Example 41]
28 | 1 to 3 µM | O=C(NCCc1c[nH]c2ccccc12)c1cc(O)ccc1O [Example 42]
29 | 1 to 3 µM | O=C(CCc1ccccc1)N[C@@H](Cc1c[nH]c2ccccc12)C(=O)O [Example 63]
30 | 3 µM | COc1ccc(CCC(=O)N[C@@H](Cc2c[nH]c3ccccc23)C(=O)O)cc1 [Example 65]
31 | 3 µM | O=C(CCc1ccc2c(c1)OCO2)N[C@@H](Cc1c[nH]c2ccccc12)C(=O)O [Example 66]
32 | 1 to 3 µM | Cn1cc(C[C@H](NC(=O)CCc2ccccc2)C(=O)O)c2ccccc21 [Example 71]
33 | 1 to 3 µM | O=C(CCc1ccccc1)N[C@@H](Cc1ccccc1)C(=O)O [Example 72]
34 | 1 to 3 µM | Cc1ccc2[nH]cc(CC(NC(=O)CCc3ccccc3)C(=O)O)c2c1 (stereo not shown) [Example 73]
